Data as given in patent US20030055106A1, “Therapeutic uses of peroxometallic compounds” (priority 1999, published 2003).

Legend:
[1] = tested on: ZR-75 breast cancer cells; test: In vitro collagen-fibrin tumor progression model, ZR-75; assay type: cell-based, human
Excerpt: FIG. 12: Illustration of the antitumor activity of bpV(phen) in vitro using ZR-75 breast cancer cells. Experiments were done as described for the FIG. 11 except that DMEM medium having a high glucose concentration and without phenol red was used. 10% FBS was used instead of 5% FBS. The media was supplemented with 10^−9 M estradiol (final concentration).
The cells embedded in the collagen gel, grew as a “primary tumor”. Some cells migrated from the primary tumor towards the fibrin gel, forming front edges. […] Their extension and numbers are representative of the invasive potential of the cancer cells.

ETs (ET-1, ET-2, ET-3) = test: Plasma endothelin levels after insulin (RIA); assay type: in vivo; settings: rats, bpV(phen) 0.5 mg/100 g b.w. i.p. 16 hours before insulin
Description: The data presented in Table III show the effect of bpV(phen) on the plasmatic levels of ETs. […] Two minutes following insulin administration (1.5 μg/100 g b.w, or vehicle), the plasma levels of ETs were determined. Insulin administration induced a strong increase of seric ET concentration (54). […] In addition, bpV(phen) decreased the insulin-stimulated levels of plasmatic ETs below control levels. […] ETs (ET-1, ET-2, ET-3) were measured by RIA (Amersham kit RPA 555) after lyophilization and extraction on C2 columns (500 mg). Results are mean ±SEM, p<0.0209, control (n=4) vs Insulin, pV (n=3).

murine B10R macrophages = test: Chemokine mRNA expression (RNase protection); assay type: cell-based
Description: FIG. 9: Effect of bpV(phen) on chemokine mRNA expression in murine B10R macrophages. (A) Cells were incubated for 2 h with or without various concentrations of bpV(phen) (1-50 μM). Total RNA was isolated and analyzed by RNase protection. (B) Kinetic expression of chemokine genes in murine BIOR macrophages. Cells were incubated for increasing period of time (1-4 h) with or without bpV(phen) at 10 μM. Following extraction of total RNA, RNase protection assay was performed. Free RNA probe is shown in the far left lane. The fold increase was calculated from the densitometry of the autoradiogam.
Various concentrations of bpv(phen) were added to B10R macrophages for4 h. mRNA expression was measured by RNase protection assays. RANTES, MIP-1a/β MIP-2, IP-10 and MCP-1 chemokine mRNA levels increased in response to bpv(phen) (FIG. 9A). MCP-1, MIP-2, MIP-1β and RANTES were induced by the addition of bpv(phen) in a dose-dependent manner whereas IP-10 and MIP-1a were expressed at markedly lower concentrations (10 μM).
To determine the kinetics of chemokine expression following pV compound treatment, B10R macrophages were incubated with 10 ?M bpV(phen) for increasing time intervals. Total RNA was extracted from macrophages at various time-points and subjected to RNase protection assay. […] Thus, conditions for the induction of chemokine expression in response to bpV(phen) seems to vary with the different chemokines.

[2] = tested on: vitelline membrane of chick embryos; test: Embryonic vascularization test (EVT) ex ovo; assay type: in vivo
Excerpt: FIG. 2: A and B show an anti-angiogenic response to bpV(phen), orthovanadate (Van) and protamine (Prot) using a vascularization test on the vitelline membrane of chick embryos. Each point represents a minimum of 15 embryos (15 to 28).
The normal development of a chick embryo involves the formation of an external vascular system which is located in the vitelline membrane and which carries nutrients from the vitellus (yolk of the egg) to the developing embryo. When placed onto the vitelline membrane, anti-angiogenic substances can inhibit blood vessel development in the vitelline membrane. To facilitate access to the vitelline membrane, chick embryos were transferred to a sterile culture box (Petri dish) and placed in a humidity- and temperature-controlled incubator. Embryos could then develop in this ex ovo condition for several days.
An aliquot of the tested compound was mixed with a methylcellulose solution and allowed to air-dry into thin discs. Methylcellulose forms an inert matrix from which the tested compound can diffuse slowly. Methylcellulose discs containing the tested compound were placed on the external border of the vascular perimeter of the vitelline membrane where the angiogenic process was still active.
The effects of the discs containing the tested compound on proximal vascular development were, in all cases, compared with those of discs containing control buffer. The discs were placed on the embryos' vitelline membrane on Day 0 or Day 1 of the ex ovo growth process; at this point, only beginnings of the main blood vessels are invading the vitellus. The embryos were then put in culture conditions until vascularization was assessed (approximately 24 h). Control buffer- and compound-containing discs were in all cases added simultaneously on the vitelline membrane of the same embryo. Both discs were arranged in a symmetrical fashion with respect to the cephalo-caudal axis of the embryo in order to minimize inter-individual variations when comparing the tested compounds with controls.
[…] After one day in culture, the level of vascularization in the area covered by the discs was graded by a pair of scientists in the usual blind fashion. To facilitate the location of the discs, black O-rings were placed around them just after their placement on the vitelline membrane. The evaluation scale for the EVTs was based on two different scoring systems.
Blood vessel formation was assessed in a blind fashion. The areas of the vitelline membranes that lay beneath the methylcellulose discs were scored for the degree of vascularization, using two scoring systems (“N/+” or “1-2-3”). The following selection criteria were used:
A score of “N” for “Normal” was attributed when all the following conditions were met:
Blood vessels in the evaluated area grew along their path with no abnormal deviation. Collateral branching density was normal and the growth path of the lateral branches was also normal.
A score of “+” was attributed when at least one of the following conditions was met:
1-2-3 Grading Scale System:
A score of 3 was attributed when the following conditions were met:
A score of 2 was attributed when at least one of the following conditions was met:
A score of 1 was attributed when at least one of the following conditions was met:
A score of 3 meant that blood vessel development was normal whereas a score of 1 indicated the greatest degree of angiostatic activity.

`O.O.O.OO.OO.[K+].[OH-].[V].c1cnc2c(c1)ccc1cccnc12` [bpV(phen), potassium bisperoxo(1,10-phenanthroline)oxovanadate] was tested, and the “progression of ZR-75-1 cells (primary and secondary tumors)” value ([1]; 2 μM) was “restricted the growth of the primary tumor”, the “progression of ZR-75-1 cells (primary and secondary tumors)” value ([1]; 5 and 10 μM) was “there were no secondary tumors and the primary tumor had a lower cell density” and the “insulin-induced increase of seric ET concentration” value (ETs (ET-1, ET-2, ET-3)) was “completely abolished”. For the same molecule, the Plasma endothelins (ETs (ET-1, ET-2, ET-3); two minutes after insulin 1.5 μg/100 g b.w., mean ±SEM, n=3) was 77.68 ± 3.08 pg/mL, the “most effective dose for the induction of chemokine gene expression” value (murine B10R macrophages) was 10 µM and the “expression of RANTES mRNA” value (murine B10R macrophages; 10 μM bpV(phen)) was “increased in a time-dependent manner over 24 h”. The “time of maximum levels of MIP-1a, MIP-2, IP-10, and MCP-1 chemokines mRNA” value (murine B10R macrophages; 10 μM bpV(phen)) was 4 h, the “time of optimal expression of MIP-1β mRNA” value (murine B10R macrophages; 10 μM bpV(phen)) was 8 h and the “RANTES, MIP-1a/β MIP-2, IP-10 and MCP-1 chemokine mRNA levels” value (murine B10R macrophages; various concentrations (1-50 μM)) was “increased”. The “Anti-angio.activity 1 to 3 (1: no angiogenesis; 3: normal angiogenesis)” value ([2]; 0.001 μg, Assay 1) was 2.7, the “Anti-angio.activity % (proportion of embryos showing an anti-angiogenic response)” value (“Anti-angio.activity %” below) ([2]; 0.001 μg, Assay 1) was 12% and the “Anti-angio.activity 1 to 3 (1: no angiogenesis; 3: normal angiogenesis)” value ([2]; 0.001 μg, Assay 2) was 2.4. For the same molecule, the “Anti-angio.activity %” value ([2]; 0.001 μg, Assay 2) was 20%, the “Anti-angio.activity 1 to 3 (1: no angiogenesis; 3: normal angiogenesis)” value ([2]; 0.001 μg, Assay 5) was 2.6 and the “Anti-angio.activity %” value ([2]; 0.001 μg, Assay 5) was 16%. For the same molecule, the “Anti-angio.activity 1 to 3 (1: no angiogenesis; 3: normal angiogenesis)” value ([2]; 0.01 μg, Assay 1) was 2.3, the “Anti-angio.activity %” value ([2]; 0.01 μg, Assay 1) was 31% and the “Anti-angio.activity 1 to 3 (1: no angiogenesis; 3: normal angiogenesis)” value ([2]; 0.01 μg, Assay 2) was 2.5. The “Anti-angio.activity %” value ([2]; 0.01 μg, Assay 2) was 19%, the “Anti-angio.activity 1 to 3 (1: no angiogenesis; 3: normal angiogenesis)” value ([2]; 0.01 μg, Assay 5) was 2.4 and the “Anti-angio.activity %” value ([2]; 0.01 μg, Assay 5) was 25%. For the same molecule, the “Anti-angio.activity 1 to 3 (1: no angiogenesis; 3: normal angiogenesis)” value ([2]; 0.1 μg, Assay 1) was 1.8, the “Anti-angio.activity %” value ([2]; 0.1 μg, Assay 1) was 61% and the “Anti-angio.activity 1 to 3 (1: no angiogenesis; 3: normal angiogenesis)” value ([2]; 0.1 μg, Assay 2) was 2.2. For the same molecule, the “Anti-angio.activity %” value ([2]; 0.1 μg, Assay 2) was 45%, the “Anti-angio.activity 1 to 3 (1: no angiogenesis; 3: normal angiogenesis)” value ([2]; 0.1 μg, Assay 5) was 2.0 and the “Anti-angio.activity %” value ([2]; 0.1 μg, Assay 5) was 53%. The “Anti-angio.activity 1 to 3 (1: no angiogenesis; 3: normal angiogenesis)” value ([2]; 1 μg, Assay 1) was 1.6, the “Anti-angio.activity %” value ([2]; 1 μg, Assay 1) was 86% and the “Anti-angio.activity 1 to 3 (1: no angiogenesis; 3: normal angiogenesis)” value ([2]; 1 μg, Assay 2) was 1.1. The “Anti-angio.activity %” value ([2]; 1 μg, Assay 2) was 100%, the “Anti-angio.activity 1 to 3 (1: no angiogenesis; 3: normal angiogenesis)” value ([2]; 1 μg, Assay 4) was 1.0 and the “Anti-angio.activity %” value ([2]; 1 μg, Assay 4) was 96%. For the same molecule, the “Anti-angio.activity 1 to 3 (1: no angiogenesis; 3: normal angiogenesis)” value ([2]; 1 μg, Assay 5) was 1.2, the “Anti-angio.activity %” value ([2]; 1 μg, Assay 5) was 94% and the “approximate IC50, neovascularization (regardless of the scoring system)” value ([2]; per methylcellulose disc) was ~0.1 µg.
